Measured values published in ChEMBL document CHEMBL1152136, “2-Trifluoroacetylthiophene oxadiazoles as potent and selective class II human histone deacetylase inhibitors” (Bioorg Med Chem Lett, 2008).

Legend:
Histone deacetylase 4 = Histone deacetylase 4 (Homo sapiens, UniProt P56524); test: Inhibition of His-tagged HDAC4 catalytic domain expressed in Escherichia coli
Histone deacetylase 1 = Histone deacetylase 1 (Homo sapiens, UniProt Q13547); test: Inhibition of HDAC1
[1] = target: T1, Protein deacetylase HDAC6 (Homo sapiens, UniProt Q9UBN7); test: Inhibition of HDAC6
T1 sequence (Q9UBN7 whole entry): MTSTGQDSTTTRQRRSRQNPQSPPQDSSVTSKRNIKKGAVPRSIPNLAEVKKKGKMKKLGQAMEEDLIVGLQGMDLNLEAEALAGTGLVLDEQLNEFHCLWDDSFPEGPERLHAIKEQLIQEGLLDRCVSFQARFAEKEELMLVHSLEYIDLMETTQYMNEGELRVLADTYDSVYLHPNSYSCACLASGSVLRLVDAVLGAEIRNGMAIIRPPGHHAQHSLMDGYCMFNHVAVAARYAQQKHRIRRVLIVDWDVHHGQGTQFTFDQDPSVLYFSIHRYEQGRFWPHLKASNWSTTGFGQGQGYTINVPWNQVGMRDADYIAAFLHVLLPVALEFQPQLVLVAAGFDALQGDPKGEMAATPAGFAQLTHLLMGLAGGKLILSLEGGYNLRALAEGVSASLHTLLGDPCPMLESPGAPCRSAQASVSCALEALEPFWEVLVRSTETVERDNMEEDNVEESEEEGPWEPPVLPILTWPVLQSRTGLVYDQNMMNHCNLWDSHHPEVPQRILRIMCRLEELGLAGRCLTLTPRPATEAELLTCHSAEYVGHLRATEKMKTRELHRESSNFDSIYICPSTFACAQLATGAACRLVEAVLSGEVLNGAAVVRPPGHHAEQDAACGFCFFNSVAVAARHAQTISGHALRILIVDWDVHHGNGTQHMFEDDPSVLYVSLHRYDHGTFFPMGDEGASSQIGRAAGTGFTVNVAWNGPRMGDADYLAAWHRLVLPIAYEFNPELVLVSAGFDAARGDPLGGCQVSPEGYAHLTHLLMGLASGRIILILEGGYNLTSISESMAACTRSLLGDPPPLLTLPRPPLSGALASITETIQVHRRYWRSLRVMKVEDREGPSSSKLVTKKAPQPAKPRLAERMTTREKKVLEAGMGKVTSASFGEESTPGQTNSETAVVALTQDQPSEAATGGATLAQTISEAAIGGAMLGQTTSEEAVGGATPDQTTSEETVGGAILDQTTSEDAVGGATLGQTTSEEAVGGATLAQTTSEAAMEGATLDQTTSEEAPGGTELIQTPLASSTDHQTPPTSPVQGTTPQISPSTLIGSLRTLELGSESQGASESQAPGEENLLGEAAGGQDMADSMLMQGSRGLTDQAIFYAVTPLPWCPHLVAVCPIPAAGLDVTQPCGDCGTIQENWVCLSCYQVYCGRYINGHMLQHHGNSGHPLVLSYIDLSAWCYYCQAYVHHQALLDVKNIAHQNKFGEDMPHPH

[2] = Selectivity for His-tagged HDAC4 catalytic domain over HDAC1
Histone deacetylase 3 = Histone deacetylase 3 (Homo sapiens, UniProt O15379); test: Inhibition of HDAC3
Histone deacetylase 3, sequence (O15379 whole entry): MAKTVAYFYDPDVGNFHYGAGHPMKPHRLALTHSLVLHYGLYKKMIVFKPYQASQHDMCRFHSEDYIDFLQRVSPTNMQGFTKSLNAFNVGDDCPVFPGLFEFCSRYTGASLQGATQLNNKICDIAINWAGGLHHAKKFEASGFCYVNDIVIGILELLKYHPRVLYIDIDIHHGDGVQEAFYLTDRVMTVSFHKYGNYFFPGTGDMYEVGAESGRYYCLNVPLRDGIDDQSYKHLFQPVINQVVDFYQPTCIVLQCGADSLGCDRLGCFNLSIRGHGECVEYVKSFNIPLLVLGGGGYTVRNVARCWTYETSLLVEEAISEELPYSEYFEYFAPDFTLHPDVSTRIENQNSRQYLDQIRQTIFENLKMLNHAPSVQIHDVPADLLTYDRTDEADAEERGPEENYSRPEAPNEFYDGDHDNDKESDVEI

[3] = Metabolic stability in S9 fraction of human HCT116 cells assessed as half life in presence of NADPH and regenerating system; assay type: ADME, cell-based, HCT-116
[4] = Metabolic stability in human HCT116 cells assessed as half life at 5 uM in presence of 10% FBS; assay type: ADME, cell-based, HCT-116
[5] = target: T1, Protein deacetylase HDAC6; test: Inhibition of HDAC6 in human HCT116 cells assessed as inhibition of alpha-tubulin deacetylation; assay type: cell-based, HCT-116

Histone deacetylase 1, sequence (Q13547 whole entry): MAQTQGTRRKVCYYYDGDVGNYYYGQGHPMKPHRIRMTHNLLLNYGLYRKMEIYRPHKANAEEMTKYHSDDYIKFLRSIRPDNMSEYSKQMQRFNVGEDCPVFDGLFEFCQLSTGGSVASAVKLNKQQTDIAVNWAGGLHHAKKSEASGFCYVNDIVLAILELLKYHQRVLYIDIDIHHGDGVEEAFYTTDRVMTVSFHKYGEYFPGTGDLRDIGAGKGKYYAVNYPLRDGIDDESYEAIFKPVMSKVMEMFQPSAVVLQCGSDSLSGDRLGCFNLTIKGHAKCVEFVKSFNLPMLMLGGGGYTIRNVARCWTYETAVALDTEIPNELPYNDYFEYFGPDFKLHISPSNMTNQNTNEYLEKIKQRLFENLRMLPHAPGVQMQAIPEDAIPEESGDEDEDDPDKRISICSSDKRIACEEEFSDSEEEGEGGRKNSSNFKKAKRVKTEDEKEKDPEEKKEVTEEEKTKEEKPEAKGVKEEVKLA
Histone deacetylase 4, sequence (P56524 whole entry, the tested form may be a part): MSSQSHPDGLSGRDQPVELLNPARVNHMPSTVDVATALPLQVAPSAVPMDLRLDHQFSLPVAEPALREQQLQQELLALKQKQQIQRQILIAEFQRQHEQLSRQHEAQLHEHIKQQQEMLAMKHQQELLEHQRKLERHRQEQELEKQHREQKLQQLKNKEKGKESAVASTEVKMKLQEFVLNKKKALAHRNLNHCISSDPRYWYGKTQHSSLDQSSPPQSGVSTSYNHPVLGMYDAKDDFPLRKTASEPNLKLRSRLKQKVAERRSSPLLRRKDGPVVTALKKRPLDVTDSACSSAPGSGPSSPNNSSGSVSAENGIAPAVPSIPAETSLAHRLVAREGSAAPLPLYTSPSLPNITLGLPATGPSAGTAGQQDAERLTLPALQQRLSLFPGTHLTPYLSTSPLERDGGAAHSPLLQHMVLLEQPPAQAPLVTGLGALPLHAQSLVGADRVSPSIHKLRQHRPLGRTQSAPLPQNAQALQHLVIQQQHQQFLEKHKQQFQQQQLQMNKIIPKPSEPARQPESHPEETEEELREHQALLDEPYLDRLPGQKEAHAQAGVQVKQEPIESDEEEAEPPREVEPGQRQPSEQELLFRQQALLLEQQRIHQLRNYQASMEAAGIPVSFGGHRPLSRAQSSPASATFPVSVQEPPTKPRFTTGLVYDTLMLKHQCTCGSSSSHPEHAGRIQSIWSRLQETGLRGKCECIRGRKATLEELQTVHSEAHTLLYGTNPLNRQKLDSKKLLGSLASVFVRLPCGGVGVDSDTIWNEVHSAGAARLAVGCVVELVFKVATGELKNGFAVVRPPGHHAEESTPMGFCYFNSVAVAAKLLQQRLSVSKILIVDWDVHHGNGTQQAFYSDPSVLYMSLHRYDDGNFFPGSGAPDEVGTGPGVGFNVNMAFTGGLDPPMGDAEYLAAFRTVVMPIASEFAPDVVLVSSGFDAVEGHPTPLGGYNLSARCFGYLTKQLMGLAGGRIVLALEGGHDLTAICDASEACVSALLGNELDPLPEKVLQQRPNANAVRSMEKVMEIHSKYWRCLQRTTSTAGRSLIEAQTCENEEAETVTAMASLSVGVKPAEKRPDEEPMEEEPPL

| Compound | IC50 (Histone deacetylase 4) [µM] | IC50 (Histone deacetylase 1) [µM] | IC50 [1] [µM] | Ratio IC50 [2] | IC50 (Histone deacetylase 3) [µM] | half-life [3] [min] | half-life at 5 µM [4] [min] | IC50 [5] [µM] |
| --- | --- | --- | --- | --- | --- | --- | --- | --- |
| Cc1ccc(-c2noc(-c3ccc(C(=O)C(F)(F)F)s3)n2)cc1 | 0.11 | 6.8 | 0.86 |  |  |  |  |  |
| O=C(Cc1noc(-c2ccc(C(=O)C(F)(F)F)s2)n1)N1CCCC1 | 0.06 | 5.9 | 0.71 | > 75 |  |  |  |  |
| Cc1cccc(-c2noc(-c3ccc(C(=O)C(F)(F)F)s3)n2)c1 | 0.28 | 6.54 | 0.68 |  | > 1 |  |  |  |
| O=C(c1ccc(-c2nc(-c3ccc(C(F)(F)F)cc3)no2)s1)C(F)(F)F | 0.2 | > 10 | 11 |  |  |  |  |  |
| O=C(c1ccc(-c2nc(-c3cccc(C(F)(F)F)c3)no2)s1)C(F)(F)F | 0.32 | 17.5 | 2.45 |  | > 1 |  |  |  |
| O=C(c1ccc(-c2nc(-c3ccccc3)no2)s1)C(F)(F)F | 0.11 | 7.4 | 0.58 |  | > 1 |  |  |  |
| Cc1noc(-c2ccc(C(=O)C(F)(F)F)s2)n1 | 0.075 | 7.6 | 0.65 |  | 7.1 | > 120 |  |  |
| CN(Cc1ccccc1)C(=O)c1ccc(C(=O)C(F)(F)F)s1 |  |  |  |  |  | 15 |  |  |
| CCNC(=O)c1ccc(C(=O)C(F)(F)F)s1 |  |  |  |  | > 10 |  |  |  |
| O=C(c1ccc(-c2ncc(-c3ccccc3)s2)s1)C(F)(F)F | 1.5 | > 10 | 1.35 |  |  |  |  |  |
| O=C(c1ccc(-c2nc(-c3ccncc3)no2)s1)C(F)(F)F | 0.59 | > 10 | 0.57 |  |  |  |  |  |
| O=C(c1ccc(-c2nc(CS(=O)(=O)Cc3ccc(F)cc3)no2)s1)C(F)(F)F | 0.06 | 6.55 | 0.7 |  | > 1 | 35 | 330 |  |
| O=C(c1ccc(-c2nc(-c3ccc(Cl)cc3Cl)no2)s1)C(F)(F)F | 0.24 | > 5 | 3 |  |  |  |  |  |
| O=C(c1ccc(-c2nc(-c3ccc(F)cc3)no2)s1)C(F)(F)F | 0.22 | 5.9 | 0.27 |  | > 1 |  |  |  |
| CC(C)(C)c1ccc(-c2noc(-c3ccc(C(=O)C(F)(F)F)s3)n2)cc1 | > 2 | 16.6 | 3.54 |  | > 1 |  |  |  |

Continued, values first:

| IC50 (Histone deacetylase 4) [µM] | IC50 (Histone deacetylase 1) [µM] | IC50 [1] [µM] | Ratio IC50 [2] | IC50 (Histone deacetylase 3) [µM] | half-life [3] [min] | half-life at 5 µM [4] [min] | IC50 [5] [µM] | Compound |
| --- | --- | --- | --- | --- | --- | --- | --- | --- |
| 0.03 | 2.47 | 0.32 | > 70 | > 1 | > 120 | 780 | 0.64 | CS(=O)(=O)Cc1noc(-c2ccc(C(=O)C(F)(F)F)s2)n1 |
| 0.07 | 2.2 | 0.84 |  |  |  |  |  | O=C(c1ccc(-c2nc(-c3cccnc3)no2)s1)C(F)(F)F |
| 0.015 | 1.17 | 0.41 | > 75 | > 1 | 25 |  |  | O=C1COc2ccccc2N1Cc1noc(-c2ccc(C(=O)C(F)(F)F)s2)n1 |
| 0.035 | 3.89 | 0.52 | > 100 | > 1 | 44 | 360 |  | O=C(c1ccc(-c2nc(CS(=O)(=O)c3cccs3)no2)s1)C(F)(F)F |
| 0.015 | 0.99 | 0.17 | 70 | 0.63 | 35 |  |  | O=C(c1ccc(-c2nc(Cc3cccs3)no2)s1)C(F)(F)F |
| 0.45 | 2.6 | 0.16 |  | 0.5 |  |  |  | O=C(c1ccc(-c2nnc(-c3cccs3)o2)s1)C(F)(F)F |
| 0.243 | 0.467 | 0.37 |  | 0.52 |  |  |  | O=C(NCc1ccccc1)c1ccc(C(=O)C(F)(F)F)s1 |
| 0.12 | 4.2 | 0.58 |  | > 1 | > 120 |  |  | O=C(c1ccc(-c2nc(-c3ccc(F)cc3F)no2)s1)C(F)(F)F |
| 0.27 | 1.8 | 0.6 |  | > 1 |  |  |  | Cc1ccc(-c2nnc(-c3ccc(C(=O)C(F)(F)F)s3)o2)cc1 |
| 0.09 | 2.8 | 0.5 |  |  |  |  |  | O=C(c1ccc(-c2nc(-c3ccccn3)no2)s1)C(F)(F)F |
|  | 4.8 |  |  |  | 18 |  |  | O=C(c1ccc(-c2nc(COc3ccc(-c4nnco4)cc3)no2)s1)C(F)(F)F |
| 0.03 | 2.22 | 0.24 | > 70 | > 1 | 45 | 720 | 0.5 | CCCS(=O)(=O)Cc1noc(-c2ccc(C(=O)C(F)(F)F)s2)n1 |
| 0.095 | 2.9 | 0.67 |  |  |  |  |  | O=C(c1ccc(-c2nc(-c3cccs3)no2)s1)C(F)(F)F |
| 0.42 | 2.97 | 0.33 |  | 0.5 |  |  |  | O=C(c1ccc(-c2nnc(-c3ccccc3)o2)s1)C(F)(F)F |
